Assays:
UCHL1 [1] = settings: cited from earlier work
[2] = system: HGSOC primary and metastatic tumors; test: Transgenic TKO mouse model of HGSOC: growth and progression of primary and metastatic tumors after UCHL1 inhibition; assay type: in vivo
Excerpt: Triple mutant (TKO) mice are Pten and Dicer knockout and overexpress mutant p53 R172H (corresponding to human R175H mutant) (Pten−/− Dicer−/− and p53-R172H). These mice spontaneously developed primary tumors in the fallopian tube at age 4 months, which metastasize to other organs by 5-6 months. This model recapitulates metastatic tumor growth as in ovarian cancer patients. […] The tumors are circled using a dotted line and/or indicated with arrows.
FIGS. 11B and 11C illustrate the reduction in primary HGSOC tumor size with LDN treatment in mice aged 4-6 months.

PSMA7 = PSMA7 RNA and protein levels in treated TKO mice; assay type: in vivo, mouse; settings: treated TKO mice vs untreated TKO control, FIG. 12E
Proteasome = Proteasome activity in treated TKO mice; assay type: in vivo, mouse; settings: treated TKO mice vs TKO CTL mice, FIG. 12E
UCHL1 [3] = test: Relative UCHL1 expression (qPCR) after DNA methylase inhibitor treatment in ovarian cancer cells; assay type: cell-based; settings: 200 μM, day 2, HGSOC cell lines with mutant p53, FIG. 7I
Protocol: FIG. 7A depicts relative UCHL1 expression (qPCR) after treatment with DNA methylase inhibitor, 5AzaDC (200 μM, day3) in ovarian cancer cells. The following cell cultures were included in the analysis: HeyA8 (WT p53), SKOV3 (p53 null), OVCAR5 (p53 null), Kuramochi (mutant p53), and OVCAR4 (mutant p53).
FIG. 7H depicts relative UCHL1 expression (qPCR) after treatment with DNA methylase inhibitor, 5AzaDC (200 μM, day 2) in ovarian cancer cells with wild-type p53 (HeyA8 and A2780), ovarian cancer cells with p53-null mutations (OVCAR5 and SKOV3) and normal fallopian tube cells with wild-type p53 (FTE282).
FIG. 7I illustrates that no change in UCHL1 levels were detected with treatment with DNA methylase inhibitor 5AzaDC (200 μM, day 2) in HGSOC cell lines with mutant p53.

Structure (SMILES) | mode of UCHL1 inhibition (UCHL1 [1]) | primary tumor ([2]; TKO mice (Pten-/- Dicer-/- p53-R172H) vs TKO control, FIG. 11A) | metastatic tumors in the omentum, diaphragm, mesentery, and peritoneal wall ([2]; TKO mice vs TKO control, FIG. 11A) | primary HGSOC tumor size ([2]; mice aged 4-6 months, FIGS. 11B and 11C) | PSMA7 RNA levels (PSMA7) | PSMA7 protein levels (PSMA7) | Proteasome activity (Proteasome) | UCHL1 levels (UCHL1 [3])
CC(=O)O/N=C1\C(=O)N(Cc2cc(Cl)ccc2Cl)c2ccc(Cl)cc21 [LDN-57444] | competitive, reversible, active site-directed inhibitor | visible reduction | absence | reduction | reduced | reduced | significantly reduced | –
Nc1ncn([C@H]2C[C@H](O)[C@@H](CO)O2)c(=O)n1 [5AzaDC] | – | – | – | – | – | – | – | no change
